Laboratory results reported in patent US20220387483A1, “USE OF IODIDE COMPOUNDS FOR THE TREATMENT AND PREVENTION OF CHEMOTHERAPY-ASSOCIATED CACHEXIA AND CARDIOTOXICITY” (FARADAY PHARMACEUTICALS, INC., priority 2019, published 2022).

Legend:
[1] = test system: Balb/c mice bearing subcutaneous CT26 tumors; assay: cancer cachexia model of Balb/c mice bearing subcutaneous CT26 tumors; type: in vivo; conditions: for TNF-α level / creatine kinase level / serum LDL level / serum VLDL level / serum triglyceride level / % tumor grow inhibition (TGI): vs vehicle control; for % tumor grow inhibition (TGI): day 20; for IL-6 level / kidney weight / lung weight / spleen weight / serum levels of TNF-α: test groups vs vehicle control; for IL-6 level: FIG. 10B; for kidney weight / lung weight / spleen weight / serum levels of TNF-α: significance; for serum levels of TNF-α: FIG. 10A; for body weight: throughout the experimental period
Method: (§1) The anti-cachectic activity of iodide was evaluated in a cancer cachexia model of Balb/c mice bearing subcutaneous CT26 tumors. NaI was administered as FDY-5301, which is sodium iodide solubilized in water and balanced with sodium chloride to create an isotonic saline solution, with a pH between 7.0 and 9.5. As shown in the experimental design depicted in FIG. 1, when tumor volume reached 100 mm^3, the mice were either left untreated, or treated with one of the following: (i) vehicle control (0.5% CMC); (ii) NaI (FDY-5301) at 2 mg/kg i.v., QD×3 weeks; (iii) bucindolol at 2 mg/kg p.o., QD×3 weeks; or (iv) NaI (FDY-5301) at 40 ug/day slow release via Alzet osmotic pump (flow rate 0.11 uL/h) s.c. for 20 days. On day 14, 1 hour post dosing, blood samples were taken from three animals from groups 2, 3, and 5. On day 20, the animals were humanely euthanized and tumor and animal characteristics were measured. Prior to euthanasia, blood samples were collected for evaluation of biochemical parameters. Following euthanasia, tumor tissue and organs, muscles were collected and weighed.

[2] = test system: Balb/c mice bearing subcutaneous CT26 tumors; assay: muscle histology and morphometry (muscle fiber area) in the CT26 cancer cachexia model; type: in vivo; conditions: for muscle fiber area, gastrocnemius / muscle fiber area, soleus: histopathological images vs vehicle control; for muscle fiber area, tibialis anterior: vs vehicle control
Method: as §1
Morphometric evaluation of transverse sections of muscle fiber area (um2) was performed on tibialis anterior, gastrocnemius, and soleus muscles from the animals described in Example 1, for evaluation of anti-cachectic properties of FDY-5301 and bucindolol in the cancer cachexia model.

[3] = test system: cardiotoxicity induced by doxorubicin; assay: cardiotoxicity induced by doxorubicin chemotherapy, ejection fraction via ultrasound; type: in vivo, C57Bl/6 mice
Method: Male C57Bl/6 mice (˜10 weeks old) were given a 15 mg/kg i.p. bolus of doxorubicin to induce cardiotoxicity. Assessment of ejection fraction was performed via ultrasound at baseline (day 0, prior to any doxorubicin administration) and on days 3, 7, 14 or 28 days post administration. Dosing of placebo or FDY-5301 was done in a blinded fashion, as was all ultrasound analysis.
A single 2 mg/kg i.v. bolus of FDY-5301 was administered by the retro orbital (r.o.) route and immediately followed by 15 mg/kg doxorubicin i.p. Placebo treated animals received saline. A Vevo® 2100 imaging system was used to assess cardiac function on days 0 (baseline), 7, 14, & 28.
A single 2 mg/kg i.v. bolus of NaI was administered by the retro orbital (r.o.) route followed immediately by the s.c. implantation of an osmotic pump designed to deliver 2 mg/kg/day of NaI. The mice then received a 15 mg/kg doxorubicin i.p. bolus. Placebo treated animals received saline (and an osmotic pump filled with saline). Cardiac function was assessed on days 0 (baseline), 3, 7 & 14.

[4] = slow release via Alzet osmotic pump

CC(C)(Cc1c[nH]c2ccccc12)NCC(O)COc1ccccc1C#N (stereo not shown) [bucindolol, reference compound]
TNF-α level ([1]; 2 mg/kg p.o.): marginally higher | creatine kinase level ([1]; 2 mg/kg p.o.): higher level | serum LDL level ([1]; 2 mg/kg p.o.): non-significant change | serum VLDL level ([1]; 2 mg/kg p.o.): significant decrease | serum triglyceride level ([1]; bucindolol 2 mg/kg p.o.): significantly lower | % tumor grow inhibition (TGI) ([1]; 2 mg/kg p.o., QD×3 weeks): 24% | IL-6 level [1]: Non-significant | kidney weight [1]: Non-significant | lung weight [1]: Non-significant | spleen weight [1]: Non-significant | serum levels of TNF-α [1]: Non-Significant | body weight ([1]; 2 mg/kg p.o., QD×3 weeks): progressive body weight gain | muscle fiber area, gastrocnemius ([2]; 2 mg/kg p.o.): increased muscle fiber area | muscle fiber area, soleus ([2]; 2 mg/kg p.o.): increased muscle fiber area

[I-].[Na+] [FDY-5301, sodium iodide]
TNF-α level ([1]; 2 mg/kg i.v.): non-significantly lower | creatine kinase level ([1]; 2 mg/kg i.v.): marginal decrease | serum LDL level ([1]; 2 mg/kg i.v.): non-significant change | serum triglyceride level ([1]; 2 mg/kg i.v.): marginally lower | % tumor grow inhibition (TGI) ([1]; 40 ug/day slow release via Alzet osmotic pump s.c.): 23% | % tumor grow inhibition (TGI) ([1]; 2 mg/kg i.v., QD×3 weeks): 31% | TNF-α level [1, 4]: marginally higher | serum LDL level [1, 4]: significant increase | serum VLDL level [1, 4]: significant decrease | serum triglyceride level [1, 4]: significantly lower | creatine kinase level ([1]; slow release): marginal decrease | IL-6 level [1]: Non-significant | kidney weight [1]: Non-significant | lung weight [1]: Non-significant | spleen weight [1]: Non-significant | serum levels of TNF-α [1]: Non-Significant | body weight ([1]; 2 mg/kg i.v., QD×3 weeks): progressive body weight gain | body weight [1, 4]: progressive body weight gain | muscle fiber area, gastrocnemius ([2]; 40 ug/day Alzet pump): increased muscle fiber area | muscle fiber area, soleus ([2]; 40 ug/day Alzet pump): increased muscle fiber area | muscle fiber area, tibialis anterior ([2]; 40 ug/day slow release via Alzet osmotic pump): significant increase | muscle fiber area, tibialis anterior ([2]; 40 ug/day slow release via Alzet osmotic pump, listed as FDY-3501): increased muscle fiber area | muscle fiber area, gastrocnemius ([2]; 2 mg/kg i.v.): increased muscle fiber area | muscle fiber area, soleus ([2]; 2 mg/kg i.v.): increased muscle fiber area | muscle fiber area, tibialis anterior ([2]; 2 mg/kg i.v.): Non-significant | muscle fiber area, tibialis anterior ([2]; 2 mg/kg i.v., listed as FDY-3501): increased muscle fiber area | ejection fraction (EF) ([3]; 2 mg/kg i.v. bolus + s.c. osmotic pump 2 mg/kg/day, 15 mg/kg doxorubicin i.p., by day 14, vs placebo): stabilized EF | ejection fraction ([3]; combined results of bolus and bolus + continuous studies, delivered at the time of chemotherapy): prevents a significant reduction in ejection fraction | change in ejection fraction from baseline ([3]; single 2 mg/kg i.v. bolus then 15 mg/kg doxorubicin i.p., days 7, 14, 28, vs placebo): less of a reduction in change in ejection fraction from baseline
